Data: patent US20260274829A1, “NEW E3 UBIQUITIN LIGASE LIGAND, PROTEIN DEGRADATION AGENT AND USE THEREOF” (GLUETACS THERAPEUTICS (SHANGHAI) CO., LTD., priority 2023, published 2026)

How the values were obtained:
Assay type in all cases: cell-based
IKZF3 = molecular target: T1, IKZF3 (Homo sapiens, UniProt Q96SW2+Q9UKT9); test: Western blot degradation of IKZF3 in hPBMC
T1 construct: endogenous in cells; host or cells: hPBMC
How it was run: (§1)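 hPBMC, compound-treated; SDS-PAGE Western, NC membrane, 1 h RT block. DC50 = conc. at 50% of DMSO band grayscale (curve fit). % remaining = target/internal control band ratio, normalized.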

IKZF2 = molecular target: T2, IKZF2 (Homo sapiens, UniProt Q96SW2+Q9UKS7); test: Western blot degradation of IKZF2 in hPBMC
T2 construct: endogenous in cells; host or cells: hPBMC
How it was run: as §1

CK1a = molecular target: T3, CK1a (Homo sapiens, UniProt P48729+Q96SW2); test: Western blot degradation of CK1a in hPBMC
T3 construct: endogenous in cells; host or cells: hPBMC
How it was run: as §1

IKZF1 = molecular target: T4, IKZF1 (Homo sapiens, UniProt Q13422+Q96SW2); test: Western blot degradation of IKZF1 in hPBMC
T4 construct: endogenous in cells; host or cells: hPBMC
How it was run: as §1

WEE1 = molecular target: T5, WEE1 (Homo sapiens, UniProt P30291+Q96SW2); test: Western blot degradation of WEE1 in hPBMC
T5 construct: endogenous in cells; host or cells: hPBMC
How it was run: as §1

GSPT1 = molecular target: T6, GSPT1 (Homo sapiens, UniProt P15170+Q96SW2); test: Western blot degradation of GSPT1 in hPBMC
T6 construct: endogenous in cells; host or cells: hPBMC
How it was run: as §1

T3 sequence (P48729 whole entry): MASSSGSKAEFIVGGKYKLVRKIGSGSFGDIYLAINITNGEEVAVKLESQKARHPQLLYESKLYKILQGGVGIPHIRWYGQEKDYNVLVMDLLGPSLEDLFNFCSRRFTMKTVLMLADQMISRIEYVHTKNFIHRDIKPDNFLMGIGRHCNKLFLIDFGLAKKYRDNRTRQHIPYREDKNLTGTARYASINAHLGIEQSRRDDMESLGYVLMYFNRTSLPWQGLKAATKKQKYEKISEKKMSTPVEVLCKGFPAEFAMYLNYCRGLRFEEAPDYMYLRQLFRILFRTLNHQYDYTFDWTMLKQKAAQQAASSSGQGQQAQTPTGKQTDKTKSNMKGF
T3 sequence (Q96SW2 whole entry): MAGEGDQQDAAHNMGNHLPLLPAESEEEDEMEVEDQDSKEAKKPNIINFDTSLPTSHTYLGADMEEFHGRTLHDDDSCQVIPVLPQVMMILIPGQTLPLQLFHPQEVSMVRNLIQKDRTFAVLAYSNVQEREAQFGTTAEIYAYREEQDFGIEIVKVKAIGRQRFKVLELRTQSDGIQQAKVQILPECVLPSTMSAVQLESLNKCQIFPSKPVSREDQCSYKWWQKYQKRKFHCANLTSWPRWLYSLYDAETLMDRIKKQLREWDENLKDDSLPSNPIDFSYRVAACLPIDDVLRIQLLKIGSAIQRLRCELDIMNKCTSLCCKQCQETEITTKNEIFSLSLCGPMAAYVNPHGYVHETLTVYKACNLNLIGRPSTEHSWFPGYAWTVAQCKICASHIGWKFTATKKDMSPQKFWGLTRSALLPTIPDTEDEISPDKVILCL
T3 sequence (Q16531 whole entry partner): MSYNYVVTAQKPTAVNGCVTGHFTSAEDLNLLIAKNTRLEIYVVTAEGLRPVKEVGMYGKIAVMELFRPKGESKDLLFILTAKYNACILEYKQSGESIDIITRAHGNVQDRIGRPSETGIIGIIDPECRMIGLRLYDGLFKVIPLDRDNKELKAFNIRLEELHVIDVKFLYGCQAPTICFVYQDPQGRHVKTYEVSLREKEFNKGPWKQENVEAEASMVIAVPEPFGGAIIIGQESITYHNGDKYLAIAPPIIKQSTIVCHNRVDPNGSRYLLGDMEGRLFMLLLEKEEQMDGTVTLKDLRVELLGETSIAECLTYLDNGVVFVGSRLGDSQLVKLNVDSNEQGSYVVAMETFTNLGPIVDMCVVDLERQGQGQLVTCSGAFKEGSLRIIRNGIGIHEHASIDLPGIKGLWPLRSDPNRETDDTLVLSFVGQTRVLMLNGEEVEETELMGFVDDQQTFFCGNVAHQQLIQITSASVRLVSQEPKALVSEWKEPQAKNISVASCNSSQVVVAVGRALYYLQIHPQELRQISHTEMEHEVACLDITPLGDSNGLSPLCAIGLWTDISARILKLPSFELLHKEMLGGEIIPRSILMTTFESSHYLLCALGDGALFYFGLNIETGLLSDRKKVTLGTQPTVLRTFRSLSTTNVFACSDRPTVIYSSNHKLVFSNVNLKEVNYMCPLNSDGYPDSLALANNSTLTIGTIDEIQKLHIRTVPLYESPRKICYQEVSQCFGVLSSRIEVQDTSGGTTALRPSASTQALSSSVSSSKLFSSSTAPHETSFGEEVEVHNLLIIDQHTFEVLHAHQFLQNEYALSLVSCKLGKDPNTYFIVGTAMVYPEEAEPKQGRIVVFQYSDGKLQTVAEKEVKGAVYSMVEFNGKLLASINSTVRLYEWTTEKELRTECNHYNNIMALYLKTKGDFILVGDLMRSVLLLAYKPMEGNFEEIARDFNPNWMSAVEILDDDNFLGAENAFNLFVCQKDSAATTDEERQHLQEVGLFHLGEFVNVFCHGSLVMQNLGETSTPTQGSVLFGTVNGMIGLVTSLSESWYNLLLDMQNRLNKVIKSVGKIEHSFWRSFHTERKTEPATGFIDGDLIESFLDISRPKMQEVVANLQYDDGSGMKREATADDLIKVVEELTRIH
T4 sequence (Q13422 whole entry): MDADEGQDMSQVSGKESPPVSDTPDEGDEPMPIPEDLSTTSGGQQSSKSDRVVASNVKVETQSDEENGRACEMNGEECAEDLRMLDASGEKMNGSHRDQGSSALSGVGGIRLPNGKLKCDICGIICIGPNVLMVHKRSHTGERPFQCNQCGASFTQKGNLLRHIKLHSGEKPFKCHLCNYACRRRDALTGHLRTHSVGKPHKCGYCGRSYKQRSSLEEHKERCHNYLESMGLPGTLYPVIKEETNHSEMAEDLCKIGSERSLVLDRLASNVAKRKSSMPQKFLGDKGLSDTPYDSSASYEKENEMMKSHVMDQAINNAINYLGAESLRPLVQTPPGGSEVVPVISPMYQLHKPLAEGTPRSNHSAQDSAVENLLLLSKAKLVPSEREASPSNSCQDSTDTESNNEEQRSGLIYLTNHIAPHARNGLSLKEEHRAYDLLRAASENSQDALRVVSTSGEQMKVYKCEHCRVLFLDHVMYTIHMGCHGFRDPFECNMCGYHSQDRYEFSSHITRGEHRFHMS
T4 sequence (Q96SW2 whole entry): as the sequence (Q96SW2 whole entry) above
T4 sequence (Q16531 whole entry partner): as the sequence (Q16531 whole entry partner) above
T5 sequence (P30291 whole entry): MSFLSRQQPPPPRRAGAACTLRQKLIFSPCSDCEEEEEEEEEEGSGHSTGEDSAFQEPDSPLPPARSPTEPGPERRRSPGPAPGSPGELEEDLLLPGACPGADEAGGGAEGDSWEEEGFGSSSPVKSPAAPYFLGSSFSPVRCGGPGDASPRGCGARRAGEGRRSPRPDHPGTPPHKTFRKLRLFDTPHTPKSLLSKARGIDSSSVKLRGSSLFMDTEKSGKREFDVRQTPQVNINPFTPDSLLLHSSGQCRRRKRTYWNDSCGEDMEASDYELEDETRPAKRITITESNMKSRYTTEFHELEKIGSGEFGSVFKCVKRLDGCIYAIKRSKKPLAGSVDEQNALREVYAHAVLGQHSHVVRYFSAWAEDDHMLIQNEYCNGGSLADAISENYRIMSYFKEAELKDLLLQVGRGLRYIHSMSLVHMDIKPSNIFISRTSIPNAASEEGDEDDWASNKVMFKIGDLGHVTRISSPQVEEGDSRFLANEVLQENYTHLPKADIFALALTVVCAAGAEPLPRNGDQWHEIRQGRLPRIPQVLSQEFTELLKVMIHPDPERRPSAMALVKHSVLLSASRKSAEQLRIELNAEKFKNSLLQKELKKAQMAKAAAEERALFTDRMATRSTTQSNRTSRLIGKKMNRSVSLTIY
T5 sequence (Q96SW2 whole entry): as the sequence (Q96SW2 whole entry) above
T5 sequence (Q16531 whole entry partner): as the sequence (Q16531 whole entry partner) above
T2 sequence (Q9UKS7 whole entry): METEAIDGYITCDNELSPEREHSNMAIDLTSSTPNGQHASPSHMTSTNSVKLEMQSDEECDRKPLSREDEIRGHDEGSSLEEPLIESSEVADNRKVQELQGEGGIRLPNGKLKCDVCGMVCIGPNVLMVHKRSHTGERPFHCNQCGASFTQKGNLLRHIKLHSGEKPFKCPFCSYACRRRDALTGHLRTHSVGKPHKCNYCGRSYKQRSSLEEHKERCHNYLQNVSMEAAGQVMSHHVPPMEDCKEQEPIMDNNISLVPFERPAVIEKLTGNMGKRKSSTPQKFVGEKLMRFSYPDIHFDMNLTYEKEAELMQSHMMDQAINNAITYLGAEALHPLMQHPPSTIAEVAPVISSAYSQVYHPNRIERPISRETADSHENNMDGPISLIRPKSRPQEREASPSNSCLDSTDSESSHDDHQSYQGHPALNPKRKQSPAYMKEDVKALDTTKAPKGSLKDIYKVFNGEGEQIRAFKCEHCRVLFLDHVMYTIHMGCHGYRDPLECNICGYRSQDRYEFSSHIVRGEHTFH
T2 sequence (Q96SW2 whole entry): as the sequence (Q96SW2 whole entry) above
T2 sequence (Q16531 whole entry partner): as the sequence (Q16531 whole entry partner) above
T1 sequence (Q9UKT9 whole entry): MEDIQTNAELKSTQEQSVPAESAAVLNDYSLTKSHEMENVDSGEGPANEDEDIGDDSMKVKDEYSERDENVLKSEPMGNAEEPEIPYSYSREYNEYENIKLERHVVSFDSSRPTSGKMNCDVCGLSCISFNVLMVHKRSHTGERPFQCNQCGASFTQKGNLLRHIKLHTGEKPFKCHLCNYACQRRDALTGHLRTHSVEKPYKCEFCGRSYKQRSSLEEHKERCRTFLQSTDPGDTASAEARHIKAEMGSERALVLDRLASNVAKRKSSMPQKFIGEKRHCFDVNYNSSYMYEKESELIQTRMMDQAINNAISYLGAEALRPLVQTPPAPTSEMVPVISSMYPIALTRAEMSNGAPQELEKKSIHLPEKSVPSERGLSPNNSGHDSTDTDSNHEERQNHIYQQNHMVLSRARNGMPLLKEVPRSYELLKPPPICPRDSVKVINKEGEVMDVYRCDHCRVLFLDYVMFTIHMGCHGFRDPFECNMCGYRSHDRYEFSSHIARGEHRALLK
T1 sequence (Q96SW2 whole entry): as the sequence (Q96SW2 whole entry) above
T1 sequence (Q16531 whole entry partner): as the sequence (Q16531 whole entry partner) above

## O=C1CCC(Nc2cncc(CO)c2)C(=O)N1 (stereo not drawn) [GT-07448, 3-((5-(hydroxymethyl)pyridin-3-yl)amino)piperidine-2,6-dione]
IKZF3
  Degradation of substrate protein IKZF3 (substrate protein remaining %): A (A is defined as 0% ≤ substrate protein remaining % ≤ 80%)
IKZF2
  Degradation of substrate protein IKZF2 (substrate protein remaining %): A (A is defined as 0% ≤ substrate protein remaining % ≤ 80%)
CK1a
  Degradation of substrate protein CK1a (substrate protein remaining %): A (A is defined as 0% ≤ substrate protein remaining % ≤ 80%)
IKZF1
  Degradation of substrate protein IKZF1 (substrate protein remaining %): A (A is defined as 0% ≤ substrate protein remaining % ≤ 80%)
WEE1
  Degradation of substrate protein WEE1 (substrate protein remaining %): A (A is defined as 0% ≤ substrate protein remaining % ≤ 80%)
GSPT1
  Degradation of substrate protein GSPT1 (substrate protein remaining %): A (A is defined as 0% ≤ substrate protein remaining % ≤ 80%)

## CC(C)(C)[Si](C)(C)OCc1cncc(NC2CCC(=O)NC2=O)c1 (stereo not drawn) [GT-07449, 3-((5-(((tert-butyldimethylsilyl)oxy)methyl)pyridin-3-yl)amino)piperidine-2,6-dione]
IKZF3
  Degradation of substrate protein IKZF3 (substrate protein remaining %): B (B is defined as substrate protein remaining % > 80%)
IKZF2
  Degradation of substrate protein IKZF2 (substrate protein remaining %): A (A is defined as 0% ≤ substrate protein remaining % ≤ 80%)
CK1a
  Degradation of substrate protein CK1a (substrate protein remaining %): B (B is defined as substrate protein remaining % > 80%)
IKZF1
  Degradation of substrate protein IKZF1 (substrate protein remaining %): B (B is defined as substrate protein remaining % > 80%)
WEE1
  Degradation of substrate protein WEE1 (substrate protein remaining %): B (B is defined as substrate protein remaining % > 80%)
GSPT1
  Degradation of substrate protein GSPT1 (substrate protein remaining %): B (B is defined as substrate protein remaining % > 80%)

## O=C1CCC(Nc2ccc(CO)cn2)C(=O)N1 (stereo not drawn) [GT-07551, 3-((5-(hydroxymethyl)pyridin-2-yl)amino)piperidine-2,6-dione]
IKZF3
  Degradation of substrate protein IKZF3 (substrate protein remaining %): B (B is defined as substrate protein remaining % > 80%)
IKZF2
  Degradation of substrate protein IKZF2 (substrate protein remaining %): A (A is defined as 0% ≤ substrate protein remaining % ≤ 80%)
CK1a
  Degradation of substrate protein CK1a (substrate protein remaining %): B (B is defined as substrate protein remaining % > 80%)
IKZF1
  Degradation of substrate protein IKZF1 (substrate protein remaining %): B (B is defined as substrate protein remaining % > 80%)
WEE1
  Degradation of substrate protein WEE1 (substrate protein remaining %): A (A is defined as 0% ≤ substrate protein remaining % ≤ 80%)
GSPT1
  Degradation of substrate protein GSPT1 (substrate protein remaining %): B (B is defined as substrate protein remaining % > 80%)

## CC(C)(C)[Si](C)(C)OCc1ccc(NC2CCC(=O)NC2=O)nc1 (stereo not drawn) [GT-07552, 3-((5-(((tert-butyldimethylsilyl)oxy)methyl)pyridin-2-yl)amino)piperidine-2,6-dione]
IKZF3
  Degradation of substrate protein IKZF3 (substrate protein remaining %): B (B is defined as substrate protein remaining % > 80%)
IKZF2
  Degradation of substrate protein IKZF2 (substrate protein remaining %): A (A is defined as 0% ≤ substrate protein remaining % ≤ 80%)
CK1a
  Degradation of substrate protein CK1a (substrate protein remaining %): B (B is defined as substrate protein remaining % > 80%)
IKZF1
  Degradation of substrate protein IKZF1 (substrate protein remaining %): B (B is defined as substrate protein remaining % > 80%)
WEE1
  Degradation of substrate protein WEE1 (substrate protein remaining %): B (B is defined as substrate protein remaining % > 80%)
GSPT1
  Degradation of substrate protein GSPT1 (substrate protein remaining %): B (B is defined as substrate protein remaining % > 80%)

## O=Cc1ccnc(NC2CCC(=O)NC2=O)c1 (stereo not drawn) [GT-07553, 2-((2,6-dioxopiperidin-3-yl)amino)isonicotinaldehyde]
IKZF3
  Degradation of substrate protein IKZF3 (substrate protein remaining %): B (B is defined as substrate protein remaining % > 80%)
IKZF2
  Degradation of substrate protein IKZF2 (substrate protein remaining %): A (A is defined as 0% ≤ substrate protein remaining % ≤ 80%)
CK1a
  Degradation of substrate protein CK1a (substrate protein remaining %): B (B is defined as substrate protein remaining % > 80%)
IKZF1
  Degradation of substrate protein IKZF1 (substrate protein remaining %): A (A is defined as 0% ≤ substrate protein remaining % ≤ 80%)
WEE1
  Degradation of substrate protein WEE1 (substrate protein remaining %): A (A is defined as 0% ≤ substrate protein remaining % ≤ 80%)
GSPT1
  Degradation of substrate protein GSPT1 (substrate protein remaining %): B (B is defined as substrate protein remaining % > 80%)

## O=Cc1cncc(NC2CCC(=O)NC2=O)c1 (stereo not drawn) [GT-07554, 5-((2,6-dioxopiperidin-3-yl)amino)nicotinaldehyde]
IKZF3
  Degradation of substrate protein IKZF3 (substrate protein remaining %): A (A is defined as 0% ≤ substrate protein remaining % ≤ 80%)
IKZF2
  Degradation of substrate protein IKZF2 (substrate protein remaining %): A (A is defined as 0% ≤ substrate protein remaining % ≤ 80%)
CK1a
  Degradation of substrate protein CK1a (substrate protein remaining %): A (A is defined as 0% ≤ substrate protein remaining % ≤ 80%)
IKZF1
  Degradation of substrate protein IKZF1 (substrate protein remaining %): A (A is defined as 0% ≤ substrate protein remaining % ≤ 80%)
WEE1
  Degradation of substrate protein WEE1 (substrate protein remaining %): A (A is defined as 0% ≤ substrate protein remaining % ≤ 80%)
GSPT1
  Degradation of substrate protein GSPT1 (substrate protein remaining %): B (B is defined as substrate protein remaining % > 80%)

## O=C1CCN(c2cnc(CO)c(F)c2)C(=O)N1 [GT-07555, 1-(5-fluoro-6-(hydroxymethyl)pyridin-3-yl)dihydropyrimidine-2,4(1H,3H)-dione]
IKZF3
  Degradation of substrate protein IKZF3 (substrate protein remaining %): A (A is defined as 0% ≤ substrate protein remaining % ≤ 80%)
IKZF2
  Degradation of substrate protein IKZF2 (substrate protein remaining %): A (A is defined as 0% ≤ substrate protein remaining % ≤ 80%)
CK1a
  Degradation of substrate protein CK1a (substrate protein remaining %): A (A is defined as 0% ≤ substrate protein remaining % ≤ 80%)
IKZF1
  Degradation of substrate protein IKZF1 (substrate protein remaining %): A (A is defined as 0% ≤ substrate protein remaining % ≤ 80%)
WEE1
  Degradation of substrate protein WEE1 (substrate protein remaining %): A (A is defined as 0% ≤ substrate protein remaining % ≤ 80%)
GSPT1
  Degradation of substrate protein GSPT1 (substrate protein remaining %): A (A is defined as 0% ≤ substrate protein remaining % ≤ 80%)

## O=C1CCN(c2cnc(F)c(CO)c2)C(=O)N1 [GT-07556, 1-(6-fluoro-5-(hydroxymethyl)pyridin-3-yl)dihydropyrimidine-2,4(1H,3H)-dione]
IKZF3
  Degradation of substrate protein IKZF3 (substrate protein remaining %): A (A is defined as 0% ≤ substrate protein remaining % ≤ 80%)
IKZF2
  Degradation of substrate protein IKZF2 (substrate protein remaining %): B (B is defined as substrate protein remaining % > 80%)
CK1a
  Degradation of substrate protein CK1a (substrate protein remaining %): A (A is defined as 0% ≤ substrate protein remaining % ≤ 80%)
IKZF1
  Degradation of substrate protein IKZF1 (substrate protein remaining %): A (A is defined as 0% ≤ substrate protein remaining % ≤ 80%)
WEE1
  Degradation of substrate protein WEE1 (substrate protein remaining %): A (A is defined as 0% ≤ substrate protein remaining % ≤ 80%)
GSPT1
  Degradation of substrate protein GSPT1 (substrate protein remaining %): B (B is defined as substrate protein remaining % > 80%)

## O=C1CCN(c2cnc(CCl)c(F)c2)C(=O)N1 [GT-07557, 1-(6-(chloromethyl)-5-fluoropyridin-3-yl)dihydropyrimidine-2,4(1H,3H)-dione]
IKZF3
  Degradation of substrate protein IKZF3 (substrate protein remaining %): B (B is defined as substrate protein remaining % > 80%)
IKZF2
  Degradation of substrate protein IKZF2 (substrate protein remaining %): B (B is defined as substrate protein remaining % > 80%)
CK1a
  Degradation of substrate protein CK1a (substrate protein remaining %): A (A is defined as 0% ≤ substrate protein remaining % ≤ 80%)
IKZF1
  Degradation of substrate protein IKZF1 (substrate protein remaining %): A (A is defined as 0% ≤ substrate protein remaining % ≤ 80%)
WEE1
  Degradation of substrate protein WEE1 (substrate protein remaining %): A (A is defined as 0% ≤ substrate protein remaining % ≤ 80%)
GSPT1
  Degradation of substrate protein GSPT1 (substrate protein remaining %): B (B is defined as substrate protein remaining % > 80%)

## O=C1CCC(c2ccc(CO)nc2F)C(=O)N1 (stereo not drawn) [GT-07558, 3-(2-fluoro-6-(hydroxymethyl)pyridin-3-yl)piperidine-2,6-dione]
IKZF3
  Degradation of substrate protein IKZF3 (substrate protein remaining %): B (B is defined as substrate protein remaining % > 80%)
IKZF2
  Degradation of substrate protein IKZF2 (substrate protein remaining %): B (B is defined as substrate protein remaining % > 80%)
CK1a
  Degradation of substrate protein CK1a (substrate protein remaining %): A (A is defined as 0% ≤ substrate protein remaining % ≤ 80%)
IKZF1
  Degradation of substrate protein IKZF1 (substrate protein remaining %): A (A is defined as 0% ≤ substrate protein remaining % ≤ 80%)
WEE1
  Degradation of substrate protein WEE1 (substrate protein remaining %): A (A is defined as 0% ≤ substrate protein remaining % ≤ 80%)
GSPT1
  Degradation of substrate protein GSPT1 (substrate protein remaining %): B (B is defined as substrate protein remaining % > 80%)

## O=C1CCC(Nc2cnccc2CO)C(=O)N1 (stereo not drawn) [GT-07559, 3-((4-(hydroxymethyl)pyridin-3-yl)amino)piperidine-2,6-dione]
IKZF3
  Degradation of substrate protein IKZF3 (substrate protein remaining %): A (A is defined as 0% ≤ substrate protein remaining % ≤ 80%)
IKZF2
  Degradation of substrate protein IKZF2 (substrate protein remaining %): A (A is defined as 0% ≤ substrate protein remaining % ≤ 80%)
CK1a
  Degradation of substrate protein CK1a (substrate protein remaining %): A (A is defined as 0% ≤ substrate protein remaining % ≤ 80%)
IKZF1
  Degradation of substrate protein IKZF1 (substrate protein remaining %): A (A is defined as 0% ≤ substrate protein remaining % ≤ 80%)
WEE1
  Degradation of substrate protein WEE1 (substrate protein remaining %): A (A is defined as 0% ≤ substrate protein remaining % ≤ 80%)
GSPT1
  Degradation of substrate protein GSPT1 (substrate protein remaining %): A (A is defined as 0% ≤ substrate protein remaining % ≤ 80%)
